For 1 molecule, IC50 results are on record in US20250091989A1, “SMALL MOLECULE PROTEIN SYNTHESIS MODULATORS” (Interdict Bio, Inc., priority 2023, published 2025).

The test system of one assay is KLE. Nature of the assay: Cell viability (CellTiter-Fluor), KLE. It is filed as cell-based. Particulars: Homo sapiens, 24-72 hrs. As for the experimental part:
(§1) Count and dispense 2,000-10,000 cells per well (100 μL volume) in black 96-well tissue culture microplate and let cells adhere overnight. Add compound dissolved in 100% DMSO to each well as needed and incubate cells in standard culture conditions for 24-72 hrs. Final DMSO concentration in each well should be 0.1-0.5%. At the desired time point, gently aspirate compound containing media and replace with PBS to wash. Repeat wash step for 2 total washes. Remove PBS and add 100 μL CellTiter-Fluor reagent (Promega) reagent to each well. Seal plate and incubate 1 hr at room temperature with orbital shaking. Analyze fluorescence using plate reader to quantify viable cells compared with vehicle (DMSO) control.

The next assay has as its system BCL-2. Kind of assay: In vitro transcription-translation (IVTT) reporter assay, BCL-2 test sequence. It is filed as biochemical. The settings on record: HeLa S3 lysate, sfGFP/mCherry ratio, 2 hrs at 30° C. The text has this:
(§2) All reporter constructs have been cloned into the pT7CFE1-CHis plasmid (ThermoFisher #88860) using Gibson assembly procedures (NEB #E2611L). The parental pT7CFE1-CHis plasmid contains an EMCV IRES at the 5′UTR for translation initiation, a multiple-cloning site (MCS) for gene insertion, an optional C-terminal His-epitope tag, and polyA sequence in the 3′UTR to regulate mRNA stability. All reporters are designed to be inserted at the MCS to include a red fluorescent protein (mCherry), P2A self-cleaving peptide which releases the preceding mCherry protein product, and a fusion open reading frame containing a 3×FLAG epitope, a peptide sequence of interest (TEST), and green fluorescent protein (sfGFP).
(§3) Construct Plasmid Preparation: All plasmids are isolated from MACH1 cells (ThermoFisher) grown overnight in ampicillin-containing luria broth, and purified using ZymoPure Express Plasmid Midiprep Kit (Zymo Research). Constructs are sequenced verified and diluted to a working concentration of 110 ng/μL.
(§4) HeLa S3 Lysate Preparation: HeLa S3 cell pellets are acquired from Ipracell/Ipratech (Belgium) and shipped as 4 mL frozen cell pellets on dry ice for storage at −80° C. until use. The procedure for lysate preparation is as follows. Prepare 1× Lysis Buffer, cold and stored on ice:
(§5) Each preparation takes 8 cell pellets (4 ml packed volume each, approximately 1.0×10^9 cells per pellet). Thaw cell pellets from −80° C. on ice for 90 mins. Lay pellets horizontally on top of the ice and rotate every 30 mins to ensure even thawing. Once thawed, add 4 mL of cold lysis buffer to each pellet, and using a serological pipet, gently pipet up and down to break up clumps. Incubate resuspended cells in ice for an additional 30 mins (plunged into ice). During 30 min incubation, rinse and RNase-zap (Ambion) glass dounces (use loose pestle “A”), gently dry and place on ice until needed. Prepare RNase-free Eppendorf tubes for spinning and for batch storage. Add batch labels to 1.5-1.7 mL RNase-free microcentrifuge tubes (labeling scheme below). Each batch will have an extra 1.5-1.7 mL RNase-free microcentrifuge tube for 40 μL of lysate, label the top of this tube (labeling scheme below). After 30 min incubation, transfer all 8 mL of cell pellet to dounce. Cell lysis is complete after douncing 100 times. Aliquot cell lysis into 1.5-1.7 mL temporary-microcentrifuge tubes. Place tubes in centrifuge with “fins” out, and spin at 1,200 xg for 5 mins. After the first spin use a 1 mL pipet to resuspend each tube and repeat spin. This acts as an additional lysis step, is more vigorous and increases lysate yield. During second spin get liquid N2 and a fresh conical tube on ice.
(§6) After spin is complete, transfer supernatant (lysate) from microcentrifuge tubes into the 50 mL conical tube and keep on ice. Repeat steps 10-14 for all other cell pellets until completed. Once all cell lysate has been transferred to the 50 mL conical tube pipet to mix so the solution is homogenous. Transfer 1 mL of lysate into batch-labeled microcentrifuge tubes and flash freeze in liquid nitrogen. Be sure to pipet up and down to mix throughout transfer step. Place all tubes in the […] for long-term storage.
(§7) In vitro transcription-translation assay setup: Each assay includes a master mix containing lysate and shared components, a 96-well plate containing compound titrations for testing, a 96-well DNA plate with reporter constructs to be tested, 96-well skirted PCR plates, and 96-well flat-bottom, black, fluorescent assay plates. […]

Another assay deals with KATO-III. Kind of assay: Cell viability (CellTiter-Fluor), KATO-III. It is filed as cell-based. The settings on record: Homo sapiens, 24-72 hrs. As for the experimental part: as §1
Another assay concerns HCC38. Kind of assay: Cell viability (CellTiter-Fluor), HCC38. The class given is cell-based. The settings on record: Homo sapiens, HCC38, 24-72 hrs. As for the experimental part:
as §1

The test system of another assay is MYC. Kind of assay: In vitro transcription-translation (IVTT) reporter assay, MYC test sequence. It is filed as biochemical. Particulars: HeLa S3 lysate, sfGFP/mCherry ratio, 2 hrs at 30° C. A digest of the protocol: (§8)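 Coupled transcription-translation in HeLa S3 lysate with reporter plasmids encoding mCherry-P2A-3×FLAG-TEST-sfGFP behind an EMCV IRES. Compounds were half-log titrated (30 μM-0.1 μM in DMSO dilution plate) into master mix, then DNA was added. Reactions ran 2 hrs at 30° C, were PBS-quenched and read for fluorescence.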

The next assay relates to HPAF-II. Nature of the assay: Cell viability (CellTiter-Fluor), HPAF-II. The settings on record: Homo sapiens, 24-72 hrs. The class given is cell-based. As for the experimental part:
as §1

For a further assay, the system named is CCND1. Nature of the assay: In vitro transcription-translation (IVTT) reporter assay, CCND1 test sequence. The class given is biochemical. Particulars: HeLa S3 lysate, sfGFP/mCherry ratio, 2 hrs at 30° C.
Source text: as §2, §3, §4, §5, §6, §7

For a further assay, the system named is LS411N. Nature of the assay: Cell viability (CellTiter-Fluor), LS411N. It is filed as cell-based. The settings on record: Homo sapiens, LS-411N, 24-72 hrs. As for the experimental part: as §1
The subject of another assay is MS751. Nature of the assay: Cell viability (CellTiter-Fluor), MS751. It is filed as cell-based. Particulars: MS751, 24-72 hrs. As for the experimental part:
as §1

The subject of another assay is ALK. Nature of the assay: In vitro transcription-translation (IVTT) reporter assay, ALK test sequence. The settings on record: HeLa S3 lysate, sfGFP/mCherry ratio, 2 hrs at 30° C. The class given is biochemical. The procedure, abridged:
as §8

A further assay concerns HEK 293T. Kind of assay: Cell viability (CellTiter-Fluor), HEK 293T. The class given is cell-based. Particulars: Homo sapiens, 24-72 hrs. As for the experimental part:
as §1

A further assay concerns KRAS G12D. Kind of assay: In vitro transcription-translation (IVTT) reporter assay, KRAS G12D test sequence. Particulars: HeLa S3 lysate, sfGFP/mCherry ratio, 2 hrs at 30° C. It is filed as biochemical. The procedure, abridged:
as §8

A further assay concerns MCL-1. Kind of assay: In vitro transcription-translation (IVTT) reporter assay, MCL-1 test sequence. It is filed as biochemical. The settings on record: HeLa S3 lysate, sfGFP/mCherry ratio, 2 hrs at 30° C.
Source text: as §2, §3, §4, §5, §6, §7

A further assay concerns MCF7. Kind of assay: Cell viability (CellTiter-Fluor), MCF7. Particulars: Homo sapiens, MCF7, 24-72 hrs. The class given is cell-based. As for the experimental part: as §1
Another assay relates to T47D. Kind of assay: Cell viability (CellTiter-Fluor), T47D. It is filed as cell-based. Particulars: Homo sapiens, 24-72 hrs. As for the experimental part:
as §1

Another assay has as its system HEPG2. Kind of assay: Cell viability (CellTiter-Fluor), HEPG2. It is filed as cell-based. The settings on record: Homo sapiens, HEPG2, 24-72 hrs. As for the experimental part:
as §1

The test system of the next assay is NCI-H1915. Kind of assay: Cell viability (CellTiter-Fluor), NCI-H1915. The settings on record: NCI-H1915, 24-72 hrs. The class given is cell-based. As for the experimental part: as §1

Regarding `COc1ccc(C[C@H]2NC[C@H](O)[C@H]2OC(=O)C[C@@H]2CCNC2)cc1` [V187690], the IC50 was 1000 to 4000 nM in the assay on KLE; below 10000 nM in the assay with BCL-2; 1000 to 4000 nM in the assay with KATO-III; 1000 to 4000 nM in the assay on HCC38; below 10000 nM in the assay with MYC; at least 4000 nM in the assay on HPAF-II. Besides, the IC50 was below 10000 nM with CCND1; 250 to 1000 nM in the assay with LS411N; 250 to 1000 nM with MS751; below 10000 nM with ALK; 250 to 1000 nM in the assay with HEK 293T; below 10000 nM with KRAS G12D. For the same molecule, the IC50 was below 10000 nM in the assay with MCL-1; 250 to 1000 nM in the assay on MCF7; 1000 to 4000 nM with T47D; 250 to 1000 nM in the assay with HEPG2; at least 4000 nM in the assay with NCI-H1915.
